Test results taken from ChEMBL document CHEMBL1201862, “PubChem BioAssay data set” (2004).
Activity calls are given as the source filed them.

Experiments:
[1] = molecular target: Alkaline phosphatase, placental type (Homo sapiens, UniProt P05187); assay: human placental alkaline phosphatase inhibition – biochemical, luminescence, confirmation (AID 1512); type: functional
[2] = molecular target: T1, Alkaline phosphatase, tissue-nonspecific isozyme (Homo sapiens, UniProt P05186); assay: potency against alkaline phosphatase TNAP – biochemical, luminescent, dose response, SAR follow-up (AID 1056)
T1 sequence (P05186 whole entry): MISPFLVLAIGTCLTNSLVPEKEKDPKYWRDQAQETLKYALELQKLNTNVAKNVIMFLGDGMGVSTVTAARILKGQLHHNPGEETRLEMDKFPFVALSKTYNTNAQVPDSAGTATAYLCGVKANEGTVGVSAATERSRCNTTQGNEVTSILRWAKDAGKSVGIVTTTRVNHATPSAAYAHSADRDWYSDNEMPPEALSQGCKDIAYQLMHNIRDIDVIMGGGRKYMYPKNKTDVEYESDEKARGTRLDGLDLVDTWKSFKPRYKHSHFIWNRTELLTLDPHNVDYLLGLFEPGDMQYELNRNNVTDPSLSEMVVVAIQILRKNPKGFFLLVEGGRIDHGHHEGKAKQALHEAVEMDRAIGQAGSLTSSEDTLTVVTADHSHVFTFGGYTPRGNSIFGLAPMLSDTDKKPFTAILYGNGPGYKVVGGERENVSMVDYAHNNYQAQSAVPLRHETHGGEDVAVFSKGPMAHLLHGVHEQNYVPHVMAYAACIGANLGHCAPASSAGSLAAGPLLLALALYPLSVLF

[3] = NIH-3T3 fibroblast cytotoxicity, dose response, cytotoxicity control, cell-based, fluorescence, Alamar Blue, secondary assay (AID 2327); type: functional;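 note: NIH-3T3 mouse fibroblasts cultured with fluconazole at 8 µg/mL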
[4] = molecular target: T2, Delta-type opioid receptor (Homo sapiens, UniProt P41143); assay: HTS Image-Based Screen for Antagonists of the DOR Receptor. [Related pubchem assays (depositor defined):AID1777, AID1785, AID1786, AID2133]; type: functional
T2 sequence (P41143 whole entry): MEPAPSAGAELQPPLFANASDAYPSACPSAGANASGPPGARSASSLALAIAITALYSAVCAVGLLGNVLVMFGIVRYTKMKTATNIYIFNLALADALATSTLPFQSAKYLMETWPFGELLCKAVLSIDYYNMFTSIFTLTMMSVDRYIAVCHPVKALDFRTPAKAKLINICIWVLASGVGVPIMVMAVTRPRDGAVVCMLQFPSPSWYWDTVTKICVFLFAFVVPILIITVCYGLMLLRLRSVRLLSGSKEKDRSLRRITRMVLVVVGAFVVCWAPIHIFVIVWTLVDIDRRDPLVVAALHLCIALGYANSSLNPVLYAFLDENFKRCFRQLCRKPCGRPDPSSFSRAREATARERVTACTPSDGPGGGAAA

Mu-type opioid receptor = Mu-type opioid receptor (Homo sapiens, UniProt P35372); assay: HTS Image-Based Screen for Agonists of the MOR Receptor. [Related pubchem assays (depositor defined):AID1777, AID1785, AID1786, AID2133]; type: functional;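 note: imaging of beta-arrestin GFP recruitment into spots after receptor activation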
Mu-type opioid receptor, sequence (P35372 whole entry): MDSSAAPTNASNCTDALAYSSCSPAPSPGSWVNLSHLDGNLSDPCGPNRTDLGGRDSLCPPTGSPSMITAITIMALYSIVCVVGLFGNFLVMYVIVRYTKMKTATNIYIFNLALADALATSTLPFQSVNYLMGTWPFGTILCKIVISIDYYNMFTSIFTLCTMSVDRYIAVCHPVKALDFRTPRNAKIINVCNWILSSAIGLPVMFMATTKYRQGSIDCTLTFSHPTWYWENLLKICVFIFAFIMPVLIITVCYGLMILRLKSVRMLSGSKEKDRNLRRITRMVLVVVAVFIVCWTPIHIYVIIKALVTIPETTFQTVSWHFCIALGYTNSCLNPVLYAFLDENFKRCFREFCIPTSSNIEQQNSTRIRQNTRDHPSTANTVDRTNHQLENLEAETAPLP

[5] = test system: Streptococcus sp. 'group A'; assay: Streptococcus pyogenes SK(-)GAS viability under kanamycin – luminescence, BacTiterGlo, confirmation, counter-screen for streptokinase expression inhibitor project, dose response (AID 1900); type: functional, organism-based
[6] = molecular target: T2, Delta-type opioid receptor; assay: HTS Image-Based Screen for Agonists of the DOR Receptor. [Related pubchem assays (depositor defined):AID1777, AID1786, AID2133]; type: functional
Beta-galactosidase [7] = molecular target: T3, Beta-galactosidase (Escherichia coli, UniProt Q8VNN2); assay: PubChem AID 485352; type: functional
T3 sequence (Q8VNN2 whole entry): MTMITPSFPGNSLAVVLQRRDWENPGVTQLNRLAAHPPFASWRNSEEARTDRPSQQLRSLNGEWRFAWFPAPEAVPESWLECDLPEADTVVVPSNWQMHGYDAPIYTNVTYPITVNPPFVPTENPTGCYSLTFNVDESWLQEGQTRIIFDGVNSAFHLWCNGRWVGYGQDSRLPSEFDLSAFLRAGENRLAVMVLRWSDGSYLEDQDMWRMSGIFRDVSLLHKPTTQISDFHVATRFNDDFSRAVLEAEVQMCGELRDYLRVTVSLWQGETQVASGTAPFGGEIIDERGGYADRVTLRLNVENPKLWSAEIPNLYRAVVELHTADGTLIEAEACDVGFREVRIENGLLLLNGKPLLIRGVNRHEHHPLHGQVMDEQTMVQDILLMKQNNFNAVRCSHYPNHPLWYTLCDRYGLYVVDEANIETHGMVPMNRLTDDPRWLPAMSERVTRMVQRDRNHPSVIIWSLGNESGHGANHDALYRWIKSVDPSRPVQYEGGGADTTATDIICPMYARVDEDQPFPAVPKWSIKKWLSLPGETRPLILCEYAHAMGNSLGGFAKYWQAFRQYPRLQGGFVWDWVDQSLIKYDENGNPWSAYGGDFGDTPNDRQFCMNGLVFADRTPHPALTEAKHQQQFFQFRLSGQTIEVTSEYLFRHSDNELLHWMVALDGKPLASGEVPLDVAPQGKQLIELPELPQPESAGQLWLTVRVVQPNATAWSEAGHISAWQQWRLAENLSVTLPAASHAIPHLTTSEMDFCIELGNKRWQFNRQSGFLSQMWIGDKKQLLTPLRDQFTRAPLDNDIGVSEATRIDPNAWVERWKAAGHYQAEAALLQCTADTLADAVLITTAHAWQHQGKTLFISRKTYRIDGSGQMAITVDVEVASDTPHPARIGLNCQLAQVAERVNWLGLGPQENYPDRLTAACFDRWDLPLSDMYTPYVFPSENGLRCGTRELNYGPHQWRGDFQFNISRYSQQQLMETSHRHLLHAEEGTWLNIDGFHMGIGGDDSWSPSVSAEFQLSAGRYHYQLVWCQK

Streptokinase A = molecular target: T4, Streptokinase A (Streptococcus pyogenes serotype M1, UniProt P10520); assay: viability-normalized secreted streptokinase activity reduction – plasminogen activation absorbance, OD405, dose response (AID 1914); type: functional, Streptococcus pyogenes M1 GAS;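 note: secreted streptokinase activity via plasminogen activation per viability signal from cell pellet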
T4 sequence (P10520 whole entry): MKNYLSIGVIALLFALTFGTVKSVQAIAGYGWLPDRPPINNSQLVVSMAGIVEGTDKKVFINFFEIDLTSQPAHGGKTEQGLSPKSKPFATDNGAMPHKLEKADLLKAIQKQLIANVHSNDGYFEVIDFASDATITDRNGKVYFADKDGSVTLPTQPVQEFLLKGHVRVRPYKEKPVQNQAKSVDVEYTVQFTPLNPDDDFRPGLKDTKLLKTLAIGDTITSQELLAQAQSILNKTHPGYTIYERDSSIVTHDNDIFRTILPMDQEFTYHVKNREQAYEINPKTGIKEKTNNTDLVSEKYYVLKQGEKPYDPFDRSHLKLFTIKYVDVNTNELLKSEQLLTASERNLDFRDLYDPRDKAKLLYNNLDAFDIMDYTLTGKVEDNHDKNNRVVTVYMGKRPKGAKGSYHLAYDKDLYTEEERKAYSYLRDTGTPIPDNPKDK

[8] = fluconazole-exposed Candida albicans growth modulators – fluorescence, retest, confirmation (AID 2467); type: functional, cell-based
[9] = Trypanosoma cruzi growth suppression in host cells – NIH3T3 host cells, beta-gal luminescence, confirmation (AID 2044); type: functional, cell-based;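 note: intracellular parasites grown in NIH/3T3 mouse fibroblasts as host cells; luminescent beta-galactosidase reporter signal from transgenic T. cruzi replicating inside host cells; inhibitors lower the luminescence signal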
[10] = molecular target: T5, Type-1 angiotensin II receptor (Homo sapiens, UniProt P30556); assay: antagonism of angiotensin II type 1 receptor – cell-based, uHTS hits, selectivity assay for APJ receptor antagonist project, dose response (AID 463214); type: functional;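 note: antagonist potency against angiotensin II stimulated AT1 response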
T5 sequence (P30556 whole entry): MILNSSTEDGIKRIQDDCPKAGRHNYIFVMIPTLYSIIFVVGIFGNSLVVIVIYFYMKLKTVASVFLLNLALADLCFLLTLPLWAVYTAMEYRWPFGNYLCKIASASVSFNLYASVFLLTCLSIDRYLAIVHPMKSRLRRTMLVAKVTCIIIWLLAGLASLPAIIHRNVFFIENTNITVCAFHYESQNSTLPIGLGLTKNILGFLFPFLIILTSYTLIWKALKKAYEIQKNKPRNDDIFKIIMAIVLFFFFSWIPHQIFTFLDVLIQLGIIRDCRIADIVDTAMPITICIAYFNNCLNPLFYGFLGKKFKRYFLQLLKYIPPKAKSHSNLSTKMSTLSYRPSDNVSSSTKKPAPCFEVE

[11] = molecular target: T6, Kappa-type opioid receptor (Homo sapiens, UniProt P41145); type: functional
T6 sequence (P41145 whole entry): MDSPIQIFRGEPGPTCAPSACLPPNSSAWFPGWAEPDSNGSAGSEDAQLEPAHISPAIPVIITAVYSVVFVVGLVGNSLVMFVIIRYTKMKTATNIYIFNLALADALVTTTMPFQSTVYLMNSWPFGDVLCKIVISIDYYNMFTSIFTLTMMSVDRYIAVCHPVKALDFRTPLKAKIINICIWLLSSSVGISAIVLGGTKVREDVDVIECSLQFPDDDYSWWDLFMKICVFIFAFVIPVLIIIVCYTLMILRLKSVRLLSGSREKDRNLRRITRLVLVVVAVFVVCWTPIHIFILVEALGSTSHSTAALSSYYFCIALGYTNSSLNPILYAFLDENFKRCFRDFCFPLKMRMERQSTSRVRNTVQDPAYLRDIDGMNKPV

[12] = NIH3T3 cell viability loss – ATP luminescence, mouse fibroblasts, counter-screen, dose response (AID 2010); type: functional, cell-based;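 note: cells exposed to compound for about 90 hours before reading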
Beta-galactosidase [13] = molecular target: T3, Beta-galactosidase; type: functional
[14] = molecular target: T6, Kappa-type opioid receptor; type: functional; remark: listed apart in the source
Streptococcus = assay: GAS UMAA2166 growth inhibition – luminescence, BacTiterGlo, counter-screen for streptokinase expression inhibitor project, dose response (AID 1915); type: functional, organism-based;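 note: potency for reduction of bacterial viability or growth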
Nonstructural protein 1 = Nonstructural protein 1 (Influenza A virus, UniProt Q194T2); type: functional, Influenza A virus (A/California/07/2009(H1N1))
[15] = molecular target: T7, Heat shock factor protein 1 (Mus musculus, UniProt P38532); assay: enhancement of HSF1-driven luciferase signal – cell-based, NIH3T3, luminescence, dose retest, confirmation (AID 435004); type: functional;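 note: stress induced by proteasome inhibitor MG132 added 30 min after compound; luciferase reporter driven by HSF1 response element in NIH3T3 cells; actives raise luminescence as potentiators of the MG132 stress response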
T7 sequence (P38532 whole entry): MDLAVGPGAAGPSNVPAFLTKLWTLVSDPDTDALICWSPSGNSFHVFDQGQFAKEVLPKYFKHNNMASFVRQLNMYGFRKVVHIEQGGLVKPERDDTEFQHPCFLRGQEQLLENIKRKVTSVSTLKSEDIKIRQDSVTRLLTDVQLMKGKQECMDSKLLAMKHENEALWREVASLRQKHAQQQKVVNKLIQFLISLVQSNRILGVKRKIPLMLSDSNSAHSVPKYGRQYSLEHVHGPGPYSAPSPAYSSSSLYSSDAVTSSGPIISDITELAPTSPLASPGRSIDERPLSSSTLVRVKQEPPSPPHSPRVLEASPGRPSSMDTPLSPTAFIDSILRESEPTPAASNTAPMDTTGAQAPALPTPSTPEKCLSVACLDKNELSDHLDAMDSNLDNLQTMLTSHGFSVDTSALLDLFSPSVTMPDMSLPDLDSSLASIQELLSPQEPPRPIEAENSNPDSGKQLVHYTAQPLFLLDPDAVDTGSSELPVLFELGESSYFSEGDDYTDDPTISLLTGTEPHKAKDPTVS

[16] = molecular target: Heat shock protein HSP 90-alpha (Homo sapiens, UniProt P07900); type: functional, organism-based
INS1 = assay: INS-1E survival protection against cytokine death – cell-based, luminescence, retest, dose response (AID 449756); type: functional; conditions: Rattus norvegicus;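 note: cell death triggered by IL-1 beta plus TNF-alpha plus IFN-gamma mixture; protective hits raise ATP signal compared with cytokine alone wells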
Vero = assay: cells; type: functional; conditions: Chlorocebus sabaeus
[17] = molecular target: DNA damage-inducible transcript 3 protein (Mus musculus, UniProt P35639); type: functional, Cricetulus griseus
DNA damage-inducible transcript 3 protein, sequence (P35639 whole entry): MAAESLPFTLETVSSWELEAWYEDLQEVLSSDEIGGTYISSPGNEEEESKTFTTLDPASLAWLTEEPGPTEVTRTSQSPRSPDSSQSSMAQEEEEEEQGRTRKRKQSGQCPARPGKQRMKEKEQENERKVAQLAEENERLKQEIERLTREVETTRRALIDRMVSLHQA

[18] = molecular target: T8, E3 ubiquitin-protein ligase XIAP (Homo sapiens, UniProt P98170); assay: Counter Screen using XIAP-Bir3 for Chemical Antagonists of Bir1/2 domains of IAP-family anti-apoptotic proteins. [Related pubchem assays (depositor defined):AID1018, AID1449, AID1514, AID1638, AID1749, AID1750, AID488957, AID488963]
T8 sequence (P98170 whole entry): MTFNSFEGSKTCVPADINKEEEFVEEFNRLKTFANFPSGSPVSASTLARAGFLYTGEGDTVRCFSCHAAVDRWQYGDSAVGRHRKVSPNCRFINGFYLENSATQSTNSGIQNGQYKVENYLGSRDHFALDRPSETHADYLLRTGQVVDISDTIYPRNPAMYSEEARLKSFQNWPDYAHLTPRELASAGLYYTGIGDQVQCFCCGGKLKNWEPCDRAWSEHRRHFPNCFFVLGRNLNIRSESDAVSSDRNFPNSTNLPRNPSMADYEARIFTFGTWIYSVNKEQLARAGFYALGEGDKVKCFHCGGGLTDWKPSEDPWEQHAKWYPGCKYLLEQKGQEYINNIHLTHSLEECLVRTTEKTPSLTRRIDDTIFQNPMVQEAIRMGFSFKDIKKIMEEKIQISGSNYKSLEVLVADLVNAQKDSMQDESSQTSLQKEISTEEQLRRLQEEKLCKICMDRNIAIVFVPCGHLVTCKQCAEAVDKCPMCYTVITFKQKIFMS

[19] = molecular target: T8, E3 ubiquitin-protein ligase XIAP; assay: small molecules displacing peptide from XIAP – biochemical, IAP family, fluorescence polarization (AID 1018); type: functional
Saccharomyces cerevisiae = assay: S. cerevisiae Caspase-1/ASC signal blockers IC50, NALP1 inhibitor project selectivity test (AID 488863); type: functional, organism-based
[20] = molecular target: NACHT, LRR and PYD domains-containing protein 1 (Homo sapiens, UniProt Q9C000); assay: NALP1 inhibitors in yeast, dose response, luminescent (AID 488860); type: functional
NACHT, LRR and PYD domains-containing protein 1, sequence (Q9C000 1-1212 limits assumed): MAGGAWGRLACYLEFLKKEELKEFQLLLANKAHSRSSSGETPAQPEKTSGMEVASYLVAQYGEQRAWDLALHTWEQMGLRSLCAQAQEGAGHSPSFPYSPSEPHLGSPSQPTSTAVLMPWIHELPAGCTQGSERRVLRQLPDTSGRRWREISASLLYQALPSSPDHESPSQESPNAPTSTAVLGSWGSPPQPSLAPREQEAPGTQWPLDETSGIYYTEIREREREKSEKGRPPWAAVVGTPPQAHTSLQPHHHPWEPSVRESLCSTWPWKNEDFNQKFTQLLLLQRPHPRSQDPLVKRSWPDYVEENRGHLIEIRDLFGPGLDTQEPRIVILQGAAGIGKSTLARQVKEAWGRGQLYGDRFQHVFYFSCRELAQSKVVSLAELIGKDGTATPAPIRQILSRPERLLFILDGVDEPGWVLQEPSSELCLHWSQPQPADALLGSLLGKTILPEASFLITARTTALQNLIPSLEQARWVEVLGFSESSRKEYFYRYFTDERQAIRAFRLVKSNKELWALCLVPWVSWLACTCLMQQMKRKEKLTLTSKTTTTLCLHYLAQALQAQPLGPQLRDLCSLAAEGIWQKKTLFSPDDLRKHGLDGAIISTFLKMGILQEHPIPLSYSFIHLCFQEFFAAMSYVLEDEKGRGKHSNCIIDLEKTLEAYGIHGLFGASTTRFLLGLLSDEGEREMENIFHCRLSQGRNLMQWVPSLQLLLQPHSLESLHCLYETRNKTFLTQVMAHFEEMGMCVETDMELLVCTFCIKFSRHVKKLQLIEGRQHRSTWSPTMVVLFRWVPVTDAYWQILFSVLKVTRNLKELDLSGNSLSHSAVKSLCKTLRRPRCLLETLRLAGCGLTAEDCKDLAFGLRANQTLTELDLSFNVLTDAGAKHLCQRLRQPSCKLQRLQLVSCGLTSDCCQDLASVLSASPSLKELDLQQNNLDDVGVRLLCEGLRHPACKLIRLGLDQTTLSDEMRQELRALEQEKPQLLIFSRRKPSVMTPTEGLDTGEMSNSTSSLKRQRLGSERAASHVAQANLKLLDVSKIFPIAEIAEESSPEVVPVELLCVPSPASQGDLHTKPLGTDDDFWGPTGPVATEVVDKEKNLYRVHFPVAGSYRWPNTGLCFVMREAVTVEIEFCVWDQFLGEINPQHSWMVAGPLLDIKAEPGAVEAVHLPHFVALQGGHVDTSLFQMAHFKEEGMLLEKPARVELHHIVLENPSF
NACHT, LRR and PYD domains-containing protein 1, sequence (Q9C000 1213-1473 limits assumed): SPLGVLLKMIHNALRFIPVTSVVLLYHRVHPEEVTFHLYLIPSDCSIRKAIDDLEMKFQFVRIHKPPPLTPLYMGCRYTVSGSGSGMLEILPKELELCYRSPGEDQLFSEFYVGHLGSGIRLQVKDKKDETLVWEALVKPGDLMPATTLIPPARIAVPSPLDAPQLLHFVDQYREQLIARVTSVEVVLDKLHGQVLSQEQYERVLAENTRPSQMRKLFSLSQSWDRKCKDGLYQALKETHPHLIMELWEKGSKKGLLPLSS

Alkaline phosphatase, placental type, sequence (P05187 whole entry): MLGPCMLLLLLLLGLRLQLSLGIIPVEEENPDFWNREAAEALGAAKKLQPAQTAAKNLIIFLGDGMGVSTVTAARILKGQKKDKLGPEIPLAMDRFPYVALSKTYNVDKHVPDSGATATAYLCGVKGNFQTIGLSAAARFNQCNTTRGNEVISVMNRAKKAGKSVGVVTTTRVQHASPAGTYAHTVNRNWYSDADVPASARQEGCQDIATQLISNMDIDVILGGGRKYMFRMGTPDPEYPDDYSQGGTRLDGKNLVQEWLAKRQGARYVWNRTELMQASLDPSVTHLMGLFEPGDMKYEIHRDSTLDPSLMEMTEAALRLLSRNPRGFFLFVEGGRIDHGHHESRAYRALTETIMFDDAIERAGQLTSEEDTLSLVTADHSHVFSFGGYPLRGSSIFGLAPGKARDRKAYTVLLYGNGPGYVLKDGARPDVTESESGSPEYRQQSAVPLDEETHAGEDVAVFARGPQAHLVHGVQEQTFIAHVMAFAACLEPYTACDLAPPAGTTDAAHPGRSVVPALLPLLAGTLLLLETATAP

## CCn1c(SCC(=O)c2ccc(O)c(O)c2)nnc1-c1ccc(Cl)cc1
[1]
  IC50: 8.76 µM (active)
[2]
  IC50: > 100 µM (inactive)

## Oc1cc(CSc2ccc(Cl)cc2)nc(-c2ccccn2)n1
[3]
  EC50: 9.84 µM (active)
[4]
  IC50: > 32 µM (inactive)
Mu-type opioid receptor
  EC50: > 32 µM (inactive)
[5]
  EC50: 0.489 µM (active)
[6]
  EC50: > 32 µM (inactive)
Beta-galactosidase [7]
  EC50: > 40 µM (inactive)
Streptokinase A
  EC50: > 150 µM (not active)
[8]
  EC50: 0.1 µM (active)
[9]
  EC50: 0.549 µM (active)
[10]
  IC50: 13 µM (active)
[11]
  IC50: 4.86 µM (active)
[12]
  EC50: 5.92 µM (active)
Beta-galactosidase [13]
  EC50: > 31.5 µM (inactive)
[14]
  IC50: > 32 µM
Streptococcus
  EC50: 6.82 µM (active)
Nonstructural protein 1
  IC50: 14.4 µM (active)
[15]
  EC50: 5.93 µM (active)
[16]
  AC50: 23.3 µM (active)
INS1
  AC50: 2.74 µM (active)
Vero
  CC50: 5.82 µM (active)

## COc1ccc(CNc2oc(-c3cccc4ccccc34)nc2C#N)cc1
[17]
  Absolute IC50 (CHOP): 10 µM

## CCCS(=O)(=O)N1CCN(C(=O)c2ccc(-c3ccccc3)cc2)CC1
[18]
  IC50: > 100 µM (inactive)
[19]
  IC50: > 100 µM (not active)

## CC(C)NC(=O)CCCOc1ccc(Cl)cc1Cl
Saccharomyces cerevisiae
  IC50: 35.8 µM (active)
[20]
  IC50: 40 µM (active)

## O=C(NNc1ccccc1[N+](=O)[O-])Nc1ccc(Cl)c(Cl)c1
[17]
  Absolute IC50 (CHOP): 10 µM
